Results published in patent US10597388B2, “Pyridazinone herbicides” (FMC CORPORATION, priority 2014, dated 2020).

Assays:
Assay in all cases: Test C greenhouse herbicide test, pre- and postemergence
Format in all cases: in vivo
[1] = test system: crabgrass, large (large crabgrass, Digitaria sanguinalis)
Outline: (§1)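 Visual 0–100 injury score (100 = complete control) taken against untreated controls after 13–15 d in greenhouse. Test chemicals, formulated in solvent plus surfactant, applied preemergence to seeds in loam–sand soil or postemergence to 1- to 4-leaf plants (2–18 cm).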

[2] = test system: morningglory (Ipomoea coccinea)
Outline: as §1

[3] = test system: pigweed (Amaranthus retroflexus)
Outline: as §1

[4] = test system: soybean (Glycine max)
Outline: as §1

[5] = test system: lambsquarters (Chenopodium album)
Outline: as §1

[6] = test system: corn (Zea mays)
Outline: as §1

[7] = test system: blackgrass (Alopecurus myosuroides)
Outline: as §1

[8] = test system: galium (catchweed bedstraw, Galium aparine)
Outline: as §1

[9] = test system: johnsongrass (Sorghum halepense)
Outline: as §1

[10] = test system: waterhemp (common waterhemp, Amaranthus rudis)
Outline: as §1

[11] = test system: oilseed rape (Brassica napus)
Outline: as §1

[12] = test system: ryegrass, Italian (Italian ryegrass, Lolium multiflorum)
Outline: as §1

[13] = test system: wheat (winter wheat, Triticum aestivum)
Outline: as §1

[14] = test system: nutsedge, yellow (yellow nutsedge, Cyperus esculentus)
Outline: as §1

[15] = test system: velvetleaf (Abutilon theophrasti)
Outline: as §1

[16] = test system: foxtail, giant (giant foxtail, Setaria faberii)
Outline: as §1

[17] = Postemergence, 31 g ai/ha, scale 0 to 100 (0 no effect, 100 complete control)
[18] = Postemergence, 62 g ai/ha, 0 to 100 scale (0 no effect, 100 complete control)
[19] = Postemergence, 250 g ai/ha, scale 0 to 100, 0 no effect, 100 complete control, 13 to 15 d
[20] = Preemergence, 31 g ai/ha, scale 0 to 100, 0 is no effect, 100 is complete control
[21] = Preemergence, 62 g ai/ha, scale 0 to 100, 0 is no effect, 100 is complete control
[22] = Preemergence, 125 g ai/ha, scale 0 to 100, 0 is no effect, 100 is complete control
[23] = Preemergence, 250 g ai/ha, scale 0 to 100 (0 no effect, 100 complete control)
[24] = postemergence, 125 g ai/ha, scale 0 to 100, 0 no effect, 100 complete control

CC(=O)Oc1c(C)nn(C)c(=O)c1-c1c(C)cc(C)c2ccccc12 [Compound 153]
Plant response rating, Crabgrass, Large [1, 17]: 55 | Crabgrass, Large plant response rating [1, 18]: 50 | Plant response rating, Crabgrass, Large [1, 19]: 75 | Plant response rating, Crabgrass, Large [1, 20]: 80 | Plant response rating, Crabgrass, Large [1, 21]: 100 | Plant response rating, Crabgrass, Large [1, 22]: 98 | Crabgrass, Large plant response rating [1, 23]: 100 | Crabgrass, Large plant response rating [1, 24]: 50 | Plant response rating, Morningglory [2, 17]: 98 | Morningglory plant response rating [2, 18]: 100 | Plant response rating, Morningglory [2, 19]: 100 | Plant response rating, Morningglory [2, 20]: 95 | Plant response rating, Morningglory [2, 21]: 90 | Plant response rating, Morningglory [2, 22]: 98 | Morningglory plant response rating [2, 23]: 98 | Morningglory plant response rating [2, 24]: 98 | Plant response rating, Pigweed [3, 17]: 85 | Pigweed plant response rating [3, 18]: 75 | Plant response rating, Pigweed [3, 19]: 85 | Plant response rating, Pigweed [3, 20]: 100 | Plant response rating, Pigweed [3, 21]: 100 | Plant response rating, Pigweed [3, 22]: 100 | Pigweed plant response rating [3, 23]: 100 | Pigweed plant response rating [3, 24]: 85 | Plant response rating, Soybean [4, 17]: 5 | Soybean plant response rating [4, 18]: 10 | Plant response rating, Soybean [4, 19]: 5 | Plant response rating, Soybean [4, 20]: 20 | Plant response rating, Soybean [4, 21]: 10 | Plant response rating, Soybean [4, 22]: 20 | Soybean plant response rating [4, 23]: 45 | Soybean plant response rating [4, 24]: 10 | Plant response rating, Lambsquarters [5, 17]: 85 | Lambsquarters plant response rating [5, 18]: 90 | Plant response rating, Lambsquarters [5, 19]: 95 | Plant response rating, Lambsquarters [5, 20]: 95 | Plant response rating, Lambsquarters [5, 21]: 100 | Plant response rating, Lambsquarters [5, 22]: 100 | Lambsquarters plant response rating [5, 23]: 98 | Lambsquarters plant response rating [5, 24]: 95 | Plant response rating, Corn [6, 17]: 20 | Corn plant response rating [6, 18]: 35 | Plant response rating, Corn [6, 19]: 10 | Plant response rating, Corn [6, 20]: 0 | Plant response rating, Corn [6, 21]: 0 | Plant response rating, Corn [6, 22]: 40 | Corn plant response rating [6, 23]: 65 | Corn plant response rating [6, 24]: 25 | Plant response rating, Blackgrass [7, 17]: 80 | Blackgrass plant response rating [7, 18]: 85 | Plant response rating, Blackgrass [7, 19]: 90 | Plant response rating, Blackgrass [7, 20]: 90 | Plant response rating, Blackgrass [7, 21]: 90 | Plant response rating, Blackgrass [7, 22]: 95 | Blackgrass plant response rating [7, 23]: 95 | Blackgrass plant response rating [7, 24]: 90 | Plant response rating, Galium [8, 17]: 95 | Galium plant response rating [8, 18]: 95 | Plant response rating, Galium [8, 19]: 98 | Plant response rating, Galium [8, 20]: 95 | Plant response rating, Galium [8, 21]: 98 | Plant response rating, Galium [8, 22]: 100 | Galium plant response rating [8, 23]: 100 | Galium plant response rating [8, 24]: 98 | Plant response rating, Johnsongrass [9, 17]: 10 | Johnsongrass plant response rating [9, 18]: 5 | Plant response rating, Johnsongrass [9, 19]: 15 | Plant response rating, Johnsongrass [9, 20]: 25 | Plant response rating, Johnsongrass [9, 21]: 50 | Plant response rating, Johnsongrass [9, 22]: 65 | Johnsongrass plant response rating [9, 23]: 70 | Johnsongrass plant response rating [9, 24]: 10 | Plant response rating, Waterhemp [10, 17]: 70 | Waterhemp plant response rating [10, 18]: 65 | Plant response rating, Waterhemp [10, 19]: 90 | Plant response rating, Waterhemp [10, 20]: 80 | Plant response rating, Waterhemp [10, 21]: 95 | Plant response rating, Waterhemp [10, 22]: 95 | Waterhemp plant response rating [10, 23]: 100 | Waterhemp plant response rating [10, 24]: 90 | Plant response rating, Oilseed Rape [11, 17]: 90 | Oilseed Rape plant response rating [11, 18]: 90 | Plant response rating, Oilseed Rape [11, 19]: 90 | Plant response rating, Oilseed Rape [11, 20]: 95 | Plant response rating, Oilseed Rape [11, 21]: 100 | Plant response rating, Oilseed Rape [11, 22]: 98 | Oilseed Rape plant response rating [11, 23]: 100 | Oilseed Rape plant response rating [11, 24]: 90 | Plant response rating, Ryegrass, Italian [12, 17]: 90 | Ryegrass, Italian plant response rating [12, 18]: 95 | Plant response rating, Ryegrass, Italian [12, 19]: 95 | Plant response rating, Ryegrass, Italian [12, 20]: 90 | Plant response rating, Ryegrass, Italian [12, 21]: 95 | Plant response rating, Ryegrass, Italian [12, 22]: 90 | Ryegrass, Italian plant response rating [12, 23]: 95 | Ryegrass, Italian plant response rating [12, 24]: 95 | Plant response rating, Wheat [13, 17]: 15 | Wheat plant response rating [13, 18]: 20 | Plant response rating, Wheat [13, 19]: 10 | Plant response rating, Wheat [13, 20]: 0 | Plant response rating, Wheat [13, 21]: 10 | Plant response rating, Wheat [13, 22]: 30 | Wheat plant response rating [13, 23]: 50 | Wheat plant response rating [13, 24]: 10 | Plant response rating, Nutsedge, Yellow [14, 17]: 85 | Nutsedge, Yellow plant response rating [14, 18]: 90 | Plant response rating, Nutsedge, Yellow [14, 19]: 90 | Plant response rating, Nutsedge, Yellow [14, 20]: 80 | Plant response rating, Nutsedge, Yellow [14, 21]: 85 | Plant response rating, Nutsedge, Yellow [14, 22]: 80 | Nutsedge, Yellow plant response rating [14, 23]: 95 | Nutsedge, Yellow plant response rating [14, 24]: 95 | Plant response rating, Velvetleaf [15, 17]: 85 | Velvetleaf plant response rating [15, 18]: 85 | Plant response rating, Velvetleaf [15, 19]: 95 | Plant response rating, Velvetleaf [15, 20]: 85 | Plant response rating, Velvetleaf [15, 21]: 90 | Plant response rating, Velvetleaf [15, 22]: 95 | Velvetleaf plant response rating [15, 23]: 90 | Velvetleaf plant response rating [15, 24]: 90 | Plant response rating, Foxtail, Giant [16, 17]: 80 | Foxtail, Giant plant response rating [16, 18]: 85 | Plant response rating, Foxtail, Giant [16, 19]: 95 | Plant response rating, Foxtail, Giant [16, 20]: 98 | Plant response rating, Foxtail, Giant [16, 21]: 100 | Plant response rating, Foxtail, Giant [16, 22]: 100 | Foxtail, Giant plant response rating [16, 23]: 100 | Foxtail, Giant plant response rating [16, 24]: 90
